# Assay: recombinant UMI read abundance after kanamycin selection (control-corrected) (log10(CPM+1)); higher = more efficient recombination; extreme values may be limits of the assay; sequences stand for … in AGTGCAGAGAAAATCGGCCAGTTTTCTCTGCCTGCAGTCCGCATGCCGTGGGACCCCTTGGGTTCTAACCTGTTGCCTAGATTTATGCAGCGGACTGCCTTTCTCCCAAAGTGATAAACCGG…AGGTTGGTTTCACT; site = the 11-nt donor
# In short: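 Values, expressed as log10(CPM+1), derive from recombinant UMI counts converted to CPM, averaged across replicates and scaled by control-derived factors. Plating was with IPTG (0.07 mM) plus kanamycin or unselected, two replicates each. The screen pooled donor and donor-binding-loop pairs for the IS621 bridge recombinase in Escherichia coli.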
# 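Further: IS621 bridge recombinase in Escherichia coli cells against a fixed T5 target plasmid.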
row,Sequence,recombinant UMI read abundance (log10)
1,TGAAAATCATGGACCGGTTTTCCCGGTAATCCGTATTTGTG (site TGAAAATCTCA),1
2,TGAAGGACATGGACCGGTTTTCCCGGTAATCCGTATTTGAC (site TGAAGGACTGT),2.4
3,TGAATAACATGGACCGGTTTTCCCGGTAATCCGTATTTGCA (site TGAATAACTTG),1.38
4,TGACCGACATGGACCGGTTTTCCCGGTAATCCGTATTTGAT (site TGACCGACTAT),0.561
5,TGAGAGACATGGACCGGTTTTCCCGGTAATCCGTATTTGCG (site TAAGAGACTCG),2.07
6,TGAGAGACATGGACCGGTTTTCCCGGTAATCCGTATTTGCG (site TCAGAGACTCG),0.426
7,TGAGAGACATGGACCGGTTTTCCCGGTAATCCGTATTTGCG (site TGAGAGACTCG),2.22
8,TGAGAGACATGGACCGGTTTTCCCGGTAATCCGTATTTGCG (site TTAGAGACTCG),1.19
9,TGAGGTGCATGGACCGGTTTTCCCGGTAATCCGTATTTGGT (site TGAGGTGCTAC),0.98
10,TGAGGTTCATGGACCGGTTTTCCCGGTAATCCGTATTTGAC (site TGAGGTTCTGT),2.17
11,TGAGTCGCATGGACCGGTTTTCCCGGTAATCCGTATTTGTG (site TGAGTCGCTCA),0.474
12,TGATAATCATGGACCGGTTTTCCCGGTAATCCGTATTTGCT (site CGATCATCTAG),0
13,TGATAATCATGGACCGGTTTTCCCGGTAATCCGTATTTGCT (site TGATAATCTAG),2.45
14,TGATTCCCATGGACCGGTTTTCCCGGTAATCCGTATTTGAC (site TGATTCCCTGT),0.794
15,TGCAAGGCATGGACCGGTTTTCCCGGTAATCCGTATTTGGT (site TGCAAGGCTAC),0.43
16,TGCAAGGCATGGACCGGTTTTCCCGGTAATCCGTATTTGGT (site TGCCAGGCTAC),0.0164
17,TGCAAGGCATGGACCGGTTTTCCCGGTAATCCGTATTTGGT (site TGCGAGGCTAC),0.0243
18,TGCAAGGCATGGACCGGTTTTCCCGGTAATCCGTATTTGGT (site TGCTAGGCTAC),0.0166
19,TGCAATCCATGGACCGGTTTTCCCGGTAATCCGTATTTGTT (site CGGAATCCTAA),0.0106

row,Sequence,recombinant UMI read abundance (log10)
1,TGCAATCCATGGACCGGTTTTCCCGGTAATCCGTATTTGTT (site TGCAATCCTAA),0.672
2,TGCAATTCATGGACCGGTTTTCCCGGTAATCCGTATTTGCC (site TACAATTCTGG),0
3,TGCAATTCATGGACCGGTTTTCCCGGTAATCCGTATTTGCC (site TCCAATTCTGG),0
4,TGCAATTCATGGACCGGTTTTCCCGGTAATCCGTATTTGCC (site TGCAATTCTGG),0.00516
5,TGCAATTCATGGACCGGTTTTCCCGGTAATCCGTATTTGCC (site TTCAATTCTGG),0
6,TGCACGACATGGACCGGTTTTCCCGGTAATCCGTATTTGCC (site TGCACGACTGG),1.52
7,TGCACGTCATGGACCGGTTTTCCCGGTAATCCGTATTTGTC (site TGCACGTCTGA),1.26
8,TGCACTGCATGGACCGGTTTTCCCGGTAATCCGTATTTGCA (site TGCACTGCTTG),0.198
9,TGCCACGCATGGACCGGTTTTCCCGGTAATCCGTATTTGTC (site TGCCACGCTGA),2.07
10,TGCCAGGCATGGACCGGTTTTCCCGGTAATCCGTATTTGGT (site TGCAAGGCTAC),0.016
11,TGCCAGGCATGGACCGGTTTTCCCGGTAATCCGTATTTGGT (site TGCCAGGCTAC),0.00408
12,TGCCAGGCATGGACCGGTTTTCCCGGTAATCCGTATTTGGT (site TGCGAGGCTAC),0.0315
13,TGCCAGGCATGGACCGGTTTTCCCGGTAATCCGTATTTGGT (site TGCTAGGCTAC),0.0336
14,TGCCATGCATGGACCGGTTTTCCCGGTAATCCGTATTTGGA (site TGCCATGCTTC),0.294
15,TGCCGAACATGGACCGGTTTTCCCGGTAATCCGTATTTGAT (site TGCCGAACTAT),1.59
16,TGCCGACCATGGACCGGTTTTCCCGGTAATCCGTATTTGTT (site TGCCGACCTAA),0.0263
17,TGCCGTTCATGGACCGGTTTTCCCGGTAATCCGTATTTGAG (site TGCCGTTCTCT),0.00558
18,TGCCTAACATGGACCGGTTTTCCCGGTAATCCGTATTTGAA (site TGCCTAACTTT),0.0425
19,TGCCTAGCATGGACCGGTTTTCCCGGTAATCCGTATTTGTT (site AGCCTAGCTAA),0.014
